Earlier results, collected in patent US20040176378A1, “Compositions of a cyclooxygenase-2 selective inhibitor and an amphetamine for the treatment of reduced blood flow to the central nervous system” (Pharmacia Corporation, priority 2003, published 2004).

Columns and labels:
[1] = tested on: human stroke victims; conditions: coupled with physical therapy, compared to stroke victims receiving only physical therapy
[2] = tested on: infarcted rats

Structure (SMILES): CC(N)Cc1ccccc1 (centres unmarked) [amphetamine]
- motor recovery [1]: accelerated motor recovery
- alternative circuit activation [2]: promoted alternative circuit activation
